Patent US10100006B2, “Compound having immune disease treatment effect and use thereof” (THE CATHOLIC UNIVERSITY OF KOREA INDUSTRY—ACADEMIC …, priority 2014, dated 2018)

Key:
IL-17 [1] = experiment: Inhibition of IL-17 production in anti-CD3 stimulated spleen cells of mouse, ELISA (Experimental Example 6); type: cell-based; details: spleen cells of DBA1/J normal mouse, anti mouse CD3 0.5 μg/ml, compound 200 and 500 μM; FIG. 24
Method: (§1) Furthermore, the inventors verified that inhibition degree of IL-17 and TNF-α as the inflammatory cytokines through an ELISA after treating anti mouse CD3 at a concentration of 0.5 μg/ml in the cells obtained from the spleen of a DBA1/J normal mouse group and commonly stimulating each compound at a concentration of 200 and 500 μM, in order to evaluating efficacy in an effect of inhibiting the inflammatory cytokines by targeting the compounds synthesized in Examples of the present invention.

TNF-α = experiment: Inhibition of TNF-α production in anti-CD3 stimulated spleen cells of mouse, ELISA (Experimental Example 6); type: cell-based; details: spleen cells of DBA1/J normal mouse, anti mouse CD3 0.5 μg/ml, compound 200 and 500 μM; FIG. 24
Method: as §1

IFN-r [2] = experiment: Production of inflammatory cytokines, ELISA: IFN-r, lymphocytes of human peripheral blood; type: cell-based; details: D: Lymphocytes of human peripheral blood
Method: (§2) Further, in a lupus-developed mouse model, a sanroque mouse used in a lupus model in the art was used and the human P.B group was used by obtaining lymphocytes from the human peripheral blood. The isolation of spleen cells and the isolation of lymphocytes from each mouse and the human peripheral blood were performed by a general method which was widely known in the art and the obtained cells were incubated for 72 h under the anti-CD3 0.5 μg/ml stimulation condition, activated, and then used.
(§3) In order to verify whether the novel compounds of the present invention have an effect on inflammation and the production of inflammatory cytokines as cause substances of the immune diseases, the inventors analyzed the production degree of IL-17, IL-6, TNF-α, IFN-γ, MMP-9, and STAT-3 and the expression degree of mRNA of these cytokines by targeting each test group. The production degree of the inflammatory cytokines was analyzed through an ELISA after obtaining a supernatant by targeting cells which were treated with the compound of the present invention and incubated, and particularly, the cells reacted with cytokine-specific antibodies anti-IL-17, anti-IL-6, anti-TNF-α, anti-IFN-γ, anti-MMP-9, and anti-STAT-3 all night at […] and then non-specific binding was blocked with a blocking solution (1% BSA/PBST). Thereafter, each biotinylated antibody was reacted at room temperature for 2 hrs, washed four times, and then reacted at room temperature for 2 hrs after diluting and adding an extravidin-alkaline phosphatase conjugate. Thereafter, a PNPP/DEA solution was added and colored, and then the absorbance was measured at a wavelength of 405 nm.

IL-17 [3] = experiment: Production of inflammatory cytokines, ELISA: IL-17, lymphocytes of human peripheral blood; type: cell-based; details: D: Lymphocytes of human peripheral blood
Method: as §2, §3

IL-6 = experiment: Production of inflammatory cytokines, ELISA: IL-6, mouse spleen cells; type: cell-based
IL-17 [4] = experiment: Production of inflammatory cytokines, ELISA: IL-17, mouse spleen cells; type: cell-based
IFN-r [5] = experiment: Production of inflammatory cytokines, ELISA: IFN-r, mouse spleen cells; type: cell-based
[6] = test system: cells in each test group disclosed in Table 3; experiment: Cytotoxicity analysis (MTT assay); type: cell-based, mouse; human; details: treatment for each concentration, 72 hrs; normal cells and disease-group cells; compared with control or metformin-treated group
Method: In order to verify whether the compounds synthesized in the present invention causes the cytotoxicity in the cells, an MTT assay was performed, target cells were divided to be the number of 2×10^5 cells per well on a 96 well plate, treated with the compounds of the present invention for each concentration, incubated for 72 hrs, added with an MTT solution (0.5% 3-4,5-dimethyl thiazol-2-yl)-2,5-diphenyl-2H-tetrazolium bromide), and incubated for 4 hrs again. Thereafter, absorbance at 540 nm was measured by an enzymelinked immunospecific assay (ELISA) meter to observe the cytotoxicity.
In order to verify whether the novel compounds synthesized in Example 1 have the cytotoxicity, a cell survival rate was verified through the MTT assay by targeting cells in each test group disclosed in Table 3 above. That is, the cells of each test group were divided according to the number of 2×10^5 cells per well and treated with the novel synthesized compounds of the present invention for each concentration, and the cell survival rate was analyzed.

Th17 cells = experiment: Inhibition of Th17 cells, flow cytometry; type: cell-based, mouse
TNF-a [7] = experiment: Production of inflammatory cytokines, ELISA: TNF-a, mouse spleen cells; type: cell-based
MMP-9 = experiment: Inflammatory gene expression, RT-PCR: MMP-9; type: cell-based, mouse; details: control = 1
osteoclasts = experiment: Inhibition of differentiation of osteoclasts, TRAP staining; type: cell-based, mouse; details: M-CSF and RANKL
TNF-a [8] = experiment: Inflammatory gene expression, RT-PCR: TNF-a; type: cell-based, mouse; details: control = 1
IgG1 = experiment: Autoantibody production, sandwich ELISA: IgG1; type: cell-based, mouse
Treg cells = experiment: Treg cell-induced activity, flow cytometry; type: cell-based, mouse; details: TCR condition
IgG2 = experiment: Autoantibody production, sandwich ELISA: IgG2; type: cell-based, mouse
Total IgG = experiment: Autoantibody production, sandwich ELISA: Total IgG; type: cell-based, mouse
STAT3 = experiment: Inflammatory gene expression, RT-PCR: STAT3; type: cell-based; details: A: Normal mouse cells; control = 1
[9] = Th17 condition (Th17 differentiation condition), A: Normal mouse cells
[10] = TCR condition, A: Normal mouse cells
[11] = TCR condition, B: Rheumatoid arthritis cells

CCN(C(=N)NC(=N)N)c1ccccc1 [SD-573, N-Ethyl-N-phenyl biguanide]
inhibition of IL-17 production (IL-17 [1]): simultaneously inhibiting the IL-17 and the TNF-α
inhibition of TNF-α production (TNF-α): simultaneously inhibiting the IL-17 and the TNF-α

N=C(N)NC(=N)Nc1ccc(Br)cc1 [SD-563, N-(4-Bromophenyl) biguanide]
inhibition of IL-17 production (IL-17 [1]): simultaneously inhibiting the IL-17 and the TNF-α
inhibition of TNF-α production (TNF-α): simultaneously inhibiting the IL-17 and the TNF-α

CCN(C(=N)NC(=N)N)c1ccccc1F [SD-574, N-Ethyl-N-(2-fluorophenyl) biguanide]
inhibition of IL-17 production (IL-17 [1]): simultaneously inhibiting the IL-17 and the TNF-α
inhibition of TNF-α production (TNF-α): simultaneously inhibiting the IL-17 and the TNF-α

CN(C(=N)NC(=N)N)c1ccc(F)cc1F [SD-284, N-(2,4-Difluorophenyl)-N-methylbiguanide]
IFN-r production (IFN-r [2]): 0.08 ng/mL
IL-17 production (IL-17 [3]): 0.1 ng/mL
IL-6 production (IL-6; Table 6, normal mouse cells): 0.7 ng/mL
IL-17 production (IL-17 [4]; Table 6, normal mouse cells): 6.5 ng/mL
IFN-r production (IFN-r [5]; Table 6, normal mouse cells): 4.9 ng/mL
cytotoxicity (cell survival rate, MTT) [6]: cytotoxicity was not observed
Th17 (Th17 cells; [9]): 2
TNF-a production (TNF-a [7]; Table 6, normal mouse cells): 0.5 ng/mL

CCN(C(=N)NC(=N)N)c1ccc(F)cc1F [SD-283, N-(2,4-Difluorophenyl)-N-ethylbiguanide]
IFN-r production (IFN-r [2]): 0.1 ng/mL
IL-17 production (IL-17 [3]): 0.1 ng/mL
MMP-9 gene expression (MMP-9; A: Normal mouse cells): 0.3 gene expression
MMP-9 gene expression (MMP-9; B: Rheumatoid arthritis cells): 1 gene expression
MMP-9 gene expression (MMP-9; C: Lupus cells): 0.04 gene expression
TRAP + Cell (osteoclasts; A: Normal mouse cells): 123
TRAP + Cell (osteoclasts; B: Rheumatoid arthritis cells): 85
TNF-a gene expression (TNF-a [8]; A: Normal mouse cells): 0.4 gene expression
TNF-a gene expression (TNF-a [8]; B: Rheumatoid arthritis cells): 0.06 gene expression
TNF-a gene expression (TNF-a [8]; C: Lupus cells): 0.1 gene expression
IgG1 (IgG1; A: Normal mouse cells): 41 ng/mL
IgG1 (IgG1; B: Rheumatoid arthritis cells): 135.3 ng/mL
IgG1 (IgG1; C: Lupus cells): 296.5 ng/mL
Treg (Treg cells; A: Normal mouse cells): 3
Treg (Treg cells; B: Rheumatoid arthritis cells): 5.1
Treg (Treg cells; C: Lupus cells): 3.3
IL-6 production (IL-6; A: Normal mouse cells): 1.4 ng/mL
IL-6 production (IL-6; B: Rheumatoid arthritis cells): 1.1 ng/mL
IL-6 production (IL-6; C: Lupus cells): 0.9 ng/mL
IL-17 production (IL-17 [4]; A: Normal mouse cells): 1.6 ng/mL
IL-17 production (IL-17 [4]; B: Rheumatoid arthritis cells): 2.2 ng/mL
IL-17 production (IL-17 [4]; C: Lupus cells): 0.4 ng/mL
IgG2 (IgG2; A: Normal mouse cells): 97.6 ng/mL
IgG2 (IgG2; B: Rheumatoid arthritis cells): 99.4 ng/mL
IgG2 (IgG2; C: Lupus cells): 76 ng/mL
IFN-r production (IFN-r [5]; A: Normal mouse cells): 7.2 ng/mL
IFN-r production (IFN-r [5]; B: Rheumatoid arthritis cells): 5.4 ng/mL
IFN-r production (IFN-r [5]; C: Lupus cells): 5.5 ng/mL
Total IgG (Total IgG; A: Normal mouse cells): 2.9 ng/mL
Total IgG (Total IgG; B: Rheumatoid arthritis cells): 49.6 ng/mL
Total IgG (Total IgG; C: Lupus cells): 113.5 ng/mL
cytotoxicity (cell survival rate, MTT) [6]: cytotoxicity was not observed
Th17 (Th17 cells; [10]): 1.1
Th17 (Th17 cells; [11]): 2.3
Th17 (Th17 cells; TCR condition, C: Lupus cells): 0.5
Th17 (Th17 cells; [9]): 0.9
STAT3 gene expression (STAT3): 1.3 gene expression
TNF-a production (TNF-a [7]; A: Normal mouse cells): 0.5 ng/mL
TNF-a production (TNF-a [7]; B: Rheumatoid arthritis cells): 0.3 ng/mL
TNF-a production (TNF-a [7]; C: Lupus cells): 0.6 ng/mL

CCCN(C(=N)NC(=N)N)c1ccc(F)cc1F [SD-580, N-(2,4-Difluorophenyl)-N-propylbiguanide]
inhibition of IL-17 production (IL-17 [1]): simultaneously inhibiting the IL-17 and the TNF-α
inhibition of TNF-α production (TNF-α): simultaneously inhibiting the IL-17 and the TNF-α

CCN(C(=N)NC(=N)N)c1ccc(F)c(F)c1 [SD-281, N-(3,4-Difluorophenyl)-N-ethylbiguanide]
IFN-r production (IFN-r [2]): 0.1 ng/mL
IL-17 production (IL-17 [3]): 0.1 ng/mL
MMP-9 gene expression (MMP-9; A: Normal mouse cells): 0.5 gene expression
MMP-9 gene expression (MMP-9; B: Rheumatoid arthritis cells): 0.4 gene expression
MMP-9 gene expression (MMP-9; C: Lupus cells): 0.4 gene expression
TRAP + Cell (osteoclasts; A: Normal mouse cells): 196
TRAP + Cell (osteoclasts; B: Rheumatoid arthritis cells): 57
TNF-a gene expression (TNF-a [8]; A: Normal mouse cells): 0.2 gene expression
TNF-a gene expression (TNF-a [8]; B: Rheumatoid arthritis cells): 0.6 gene expression
TNF-a gene expression (TNF-a [8]; C: Lupus cells): 0.1 gene expression
IgG1 (IgG1; A: Normal mouse cells): 83.8 ng/mL
IgG1 (IgG1; B: Rheumatoid arthritis cells): 135.2 ng/mL
IgG1 (IgG1; C: Lupus cells): 258.2 ng/mL
Treg (Treg cells; A: Normal mouse cells): 2
Treg (Treg cells; B: Rheumatoid arthritis cells): 4.6
Treg (Treg cells; C: Lupus cells): 2.8
IL-6 production (IL-6; A: Normal mouse cells): 1.4 ng/mL
IL-6 production (IL-6; B: Rheumatoid arthritis cells): 1.4 ng/mL
IL-6 production (IL-6; C: Lupus cells): 1 ng/mL
IL-17 production (IL-17 [4]; A: Normal mouse cells): 1.7 ng/mL
IL-17 production (IL-17 [4]; B: Rheumatoid arthritis cells): 2.2 ng/mL
IL-17 production (IL-17 [4]; C: Lupus cells): 0.6 ng/mL
IgG2 (IgG2; A: Normal mouse cells): 35.6 ng/mL
IgG2 (IgG2; B: Rheumatoid arthritis cells): 33.5 ng/mL
IgG2 (IgG2; C: Lupus cells): 84.3 ng/mL
IFN-r production (IFN-r [5]; A: Normal mouse cells): 5.8 ng/mL
IFN-r production (IFN-r [5]; B: Rheumatoid arthritis cells): 5.3 ng/mL
IFN-r production (IFN-r [5]; C: Lupus cells): 10 ng/mL
Total IgG (Total IgG; A: Normal mouse cells): 2.3 ng/mL
Total IgG (Total IgG; B: Rheumatoid arthritis cells): 58.1 ng/mL
Total IgG (Total IgG; C: Lupus cells): 124.5 ng/mL
cytotoxicity (cell survival rate, MTT) [6]: cytotoxicity was not observed
Th17 (Th17 cells; [10]): 1.2
Th17 (Th17 cells; [11]): 1.5
Th17 (Th17 cells; TCR condition, C: Lupus cells): 0.8
Th17 (Th17 cells; [9]): 0.4
STAT3 gene expression (STAT3): 1.2 gene expression
TNF-a production (TNF-a [7]; A: Normal mouse cells): 0.5 ng/mL
TNF-a production (TNF-a [7]; B: Rheumatoid arthritis cells): 0.4 ng/mL
TNF-a production (TNF-a [7]; C: Lupus cells): 0.7 ng/mL

N=C(N)NC(=N)Nc1cccc(Cl)c1 [SD-564, N-(3-Chlorophenyl) biguanide]
inhibition of IL-17 production (IL-17 [1]): simultaneously inhibiting the IL-17 and the TNF-α
inhibition of TNF-α production (TNF-α): simultaneously inhibiting the IL-17 and the TNF-α

CCN(C(=N)NC(=N)N)c1ccc(Br)cc1 [SD-567, N-(4-Bromophenyl)-N-ethyl-biguanide]
inhibition of IL-17 production (IL-17 [1]): simultaneously inhibiting the IL-17 and the TNF-α
inhibition of TNF-α production (TNF-α): simultaneously inhibiting the IL-17 and the TNF-α

CCN(C(=N)NC(=N)N)c1ccc(Cl)cc1 [SD-566, N-(4-Chlorophenyl)-N-ethyl-biguanide]
inhibition of IL-17 production (IL-17 [1]): simultaneously inhibiting the IL-17 and the TNF-α
inhibition of TNF-α production (TNF-α): simultaneously inhibiting the IL-17 and the TNF-α
